Experimental data: PMC9694048 (Pharmaceutics, 2022)
Where a SMILES comes first, the peptide text is derived from it. [ ]: non-standard residue; d: D form.

Columns and labels:
[1] = tested on: WERI-Rb1 cells; experiment: MTS cell viability assay; format: cell-based; conditions: WERI-Rb1 cells, 48 h; dose used for spheroid treatment
Method: (§1) WERI-Rb1 and ARPE-19 cells were seeded at a concentration of 2 × 10^3 cells/well in a 96-well plate and cultured at 37 °C in a humidified 5% CO2 incubator. After seeding the cells, they were treated with various concentrations of CAPs and further incubated for 48 h at 37 °C. Cell viability was assessed after 48 h using the Cell-Titer 96® Aqueous One Solution Cell Proliferation Assay (cat#G3582, Promega, WI, USA) according to the manufacturer’s protocol and described earlier. Briefly, 10 µL of MTS reagent was added to each well and the cells were incubated at 37 °C for 2 h before the experiment end time points. Percentage cell viability was calculated from the absorbance measured at 490 nm using a TECAN microplate reader.

[2] = tested on: WERI-Rb1 cells; experiment: Western blot of DNA damage markers; format: cell-based; conditions: IC50 dose
Method: WERI-Rb1 cells were seeded in 6-well cell culture plates (1 × 10^6 cells/well), incubated at 37 °C in a humidified 5% CO2 incubator, and were treated with IC50 doses of topotecan, HC3. or HC5. After 48 h, cells were lysed in RIPA buffer (20 mM Tris pH 8.0, 0.1% SDS, 150 mM NaCl, 0.08% sodium deoxycholate, 1% NP40 supplemented with one tablet of protease inhibitor and phosphatase inhibitor (Roche). 20 µg of total protein was loaded per lane and separated by SDS-PAGE. The separated proteins on the gel were transferred to PVDF membrane and were probed for antibodies against γH2A.X (1:1000, cat#2595, Cell Signaling Technology, Danvers, MA, USA), p-γH2A.X (Ser139) (1:1000, cat#2577, Cell Signaling Technology, Danvers, MA, USA), p-BCL2(Ser70) (1:1000, cat#2827, Cell Signaling Technology, Danvers, MA, USA), BCL2 (1:1000, cat#2872, Cell Signaling Technology, Danvers, MA, USA), Bax (1:1000, cat#2772, Cell Signaling Technology, Danvers, MA, USA), p-ATM(Ser1981) (1:1000, cat#5883, Cell Signaling Technology, Danvers, MA, USA), ATM (1:1000, cat#2873, Cell Signaling Technology, Danvers, MA, USA), p-Chk2(Thr68) (1:1000, cat#2661, Cell Signaling Technology, Danvers, MA, USA), Chk2 ([…], cat#2662, Cell Signaling Technology, Danvers, MA, USA), p-p53(Ser15) (1:1000, cat#9284, Cell Signaling Technology, Danvers, MA, USA), p-p53(Ser46) (1:1000, cat#2521, Cell Signaling Technology, Danvers, MA, USA), p53 (1:1000, cat#2524, Cell Signaling Technology, Danvers, MA, USA), Cleaved caspase 9 (1:1000, cat#9505, Cell Signaling Technology, Danvers, MA, USA), Cleaved caspase 3 (1:1000, cat#9661, Cell Signaling Technology, Danvers, MA, USA), Cleaved PARP (1:1000, cat#5625, Cell Signaling Technology, Danvers, MA, USA), and GAPDH (1:2000, cat#ab9485, Abcam, Cambridge, UK). Proteins of interest were detected with HRP-conjugated sheep anti-mouse (1:5000, cat#7076, Cell Signaling Technology, Danvers, MA, USA) or anti-rabbit IgG antibody (1:5000, cat#7074, Cell Signaling Technology, Danvers, MA, USA) and visualized with the Clarity ECL Western blotting substrate (Bio-Rad, Hercules, CA, USA) according to the provided protocol.

[3] = tested on: ARPE-19 cells; experiment: Western blot of apoptotic markers in cytoplasmic and mitochondrial fractions; format: cell-based, Human; conditions: ARPE-19, 48-h exposure, cytoplasmic and mitochondrial fractions (Figure 5c)
[4] = tested on: WERI-Rb1 cells; experiment: Trypan blue viability assay; format: cell-based; conditions: WERI-Rb1, 48 h treatment
Method: WERI-Rb1 cells (1 × 10^5) were treated with increasing concentrations (7.7 µM, 36.25 µM, 72.5 µM, 145 µM, or 290 µM) of a panel of six HC peptides (HC1, HC2, HC3, HC4, HC5, and HC6). Nocodazole (10 µM) treatment was used as a positive control for the study, with untreated cells as the negative control. All treatments were performed at 37 °C in a 90% humidified incubator with 5% CO2 for 48 h. After 48 h post-treatment, cells were stained with 0.4% trypan blue (cat#15250061, Invitrogen, Waltham, MA, USA) and the number of live and dead cells for each time point was estimated using the hemocytometer cell counting protocol. The percentage of cell viability was calculated by dividing the live cell count by the total cell count.

[5] = tested on: WERI-Rb1 tumor spheroids; experiment: Tumor spheroid area by high content imaging; format: cell-based; conditions: 7-day-old WERI-Rb1 spheroids, IC50 dose, 48 h, n = 9 per condition
Method: Spheroids were developed using the hanging drop protocol on low attachment U-bottom 96-well plate. The single cell suspension of 5 × 10^2 WERI-Rb1 cells in 100 µL medium was loaded in each well of a 96-well plate. The cells were cultured at 37 °C in a 90% humidified incubator with 5% CO2 for 7 days for the generation of tight and regular tumor spheroids. Seven-day-old spheroids (n = 9 per condition) were treated with 100 μL of freshly prepared medium containing an IC50 dose of topotecan (Figure S1), HC3, or HC5. The cultures were then incubated for 48 h prior to high content analysis (HCA) and immunofluorescence (IF) assays.
WERI-Rb1 cells were stained with orange plasma membrane stain as per the manufacturer’s protocol (Cell Mask Orange Plasma membrane stain; cat#C10045, Invitrogen, Waltham, MA, USA) prior to the development of spheroids. The stained WERI-Rb1 cells were used for spheroid formation using the hanging drop protocol on a low attachment U-bottom 96-well plate. […] The images were acquired using the automated high-content imaging system, IN Cell Analyzer 6000 (GE Healthcare, Singapore), equipped with a laser-based confocal platform having a 2× objective. The automatically captured single well imaging of spheroids and a Z stack of 11 images were separated by 50 µm total 500 µm depth for spheroids, using maximum intensity projection (MIP) acquisition and single-channel filter at 567 nm. To reduce data storage and image analysis time, we analyzed 2D projection images of tumor spheroids for multiple treatment conditions. Spheroid area and shape were automatically quantified by HCA using the IN-Cell 6000 software (GE Healthcare, Singapore). The mean area (µm^2) of each spheroid was calculated to elucidate the drug/peptide response.

[6] = tested on: ARPE-19 cells; experiment: MTS cell viability assay; format: cell-based, Human; conditions: ARPE-19, MTS, 48 h (Figure 2c)
Method: as §1

SMILES: N=C(N)NCCC[C@H](NC(=O)[C@@H](CCCCN)NC(=O)[C@H](CCCNC(=N)N)NC(=O)[C@@H](CCCCN)NC(=O)[C@H](CCCNC(=N)N)NC(=O)[C@@H](CCCCN)NC(=O)[C@H](CCCNC(=N)N)NC(=O)[C@@H](CCCCN)NC(=O)[C@H](CCCNC(=N)N)NC(=O)[C@@H](CCCCN)NC(=O)[C@H](CCCNC(=N)N)NC(=O)[C@H](N)CCCCN)C(=O)O [HC5] (H-[dK]R[dK]R[dK]R[dK]R[dK]R[dK]R-OH; N-terminus and C-terminus assumed)
- IC50 [1]: 65.2 µL/mL
- phosphorylation of ATM and CHK2 (immunoblot) ([2]; 48-h treatment, Western blot (Figure 4b)): induced phosphorylation of ATM (ataxia-telangiectasia mutated) at Ser1981 and CHK2 at Thr68
- γH2A.X phosphorylation at Ser139 (immunoblot) ([2]; 48 h, Western blot (Figure 4a)): did not show any activation of γH2A.X(Ser139)
- apoptotic events in ARPE-19 cells (Bax, cytochrome c) [3]: did not trigger any apoptotic events
- cell death at a high dose ([4]; high dose (dose not specified)): 60%
- cell death at a low dose ([4]; low dose (dose not specified)): 40%
- effect on Rb spheroid size [5]: effectively shrunk and decreased the Rb spheroid size
- cytotoxic effect on non-malignant ARPE-19 cells [6]: did not display any cytotoxic effect
